This is an account of results in patent publication US12091393B2, “Small molecule vaccine adjuvant for enhancing or prolonging immune response” (The Regents of the University of California, priority 2018, dated 2024).

SMILES strings stand for the structures. Where two headings read alike, the source gives them in different places.

Data set [1] has as its system NF-κB. Briefly: Measurement of NF-κB activation using THP1-Blue NF-κB cells (SEAP). The conditions noted are these: for activity at 5 µM: 20 h, two point normalized, compound 1 as 200%; for NF-κB activity (SAR discussion, in words): evaluated in both the presence and absence of LPS. It counts as cell-based.
Data set [2] relates to NF-κB. Put plainly: cell-based NF-κB FRET assay. The settings on record: compound + LPS; two point normalized, compound 1 as 200%, LPS (10 ng/mL) as 100%. From the text: Site A was assigned the 4-substituent of thiazole ring, site B was the thiazole ring itself, site C was the central amide bond in the structure, site D was the benzene ring bearing 1,4-carboxyl and sulfamoyl group, site E was the sulfonamide functional group and site F was the amide substituent on the sulfamoyl group.

The next data set concerns THP-1 cells. Briefly: Cell viability assay (MTT). It counts as cell-based. The conditions noted are these: compound 5 μM alone, 18 h, normalized to DMSO as 100%. In a few lines:
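THP-1 cells in RPMI/10% FBS got compound at a final 5 μM (0.05% DMSO) for 18 h. MTT (0.5 mg/mL) was then added for 4 to 6 h, followed by SDS/HCl lysis overnight. Absorbance was read at 570 nm against 650 nm reference.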

Setting [3] is: compound 5 μM + LPS, LPS (10 ng/mL) as 100%, read-out: NF-κB SEAP Compound + LPS % Activation.
The mark [4] stands for this setting: compound 5 μM alone, LPS or DMSO as 100%, read-out: NF-κB SEAP Compound alone % Activation.

As to `CC(=O)N1CCN(S(=O)(=O)c2ccc(C(=O)Nc3nc(-c4cc(C)ccc4C)cs3)cc2)CC1` [Compound 58j, 4-((4-acetylpiperazin-1-yl)sulfonyl)-N-(4-(2,5-dimethylphenyl)thiazol-2-yl)benzamide], the activity at 5 µM with NF-κB [1] (setting [3]) and in the data set with NF-κB [1] (setting [4]) was 101% each time. Besides, the “NF-κB activity (SAR discussion, in words)” value (“NF-κB activity” for short) with NF-κB [1] is “inactive”. The “NF-κB FRET Compound + LPS % Activation” value in the data set with NF-κB [2] was 90.73%. The “MTT Compound alone % Viability” value in the data set on THP-1 cells stood at 72.09%.
Consider `CCCN1CCN(S(=O)(=O)c2ccc(C(=O)Nc3nc(-c4cc(C)ccc4C)cs3)cc2)CC1` [Compound 58k, N-(4-(2,5-dimethylphenyl)thiazol-2-yl)-4-((4-propylpiperazin-1-yl)sulfonyl)benzamide], for which the activity at 5 µM in the data set on NF-κB [1] (setting [3]) turned out to be 110%; with NF-κB [1] (setting [4]), 101%. Also, the “NF-κB activity” value in the data set with NF-κB [1] is “inactive”. Also, the “NF-κB FRET Compound + LPS % Activation” value in the data set on NF-κB [2] is 100.84%. Also, the “MTT Compound alone % Viability” value in the data set on THP-1 cells amounted to 50.85%.
As to `CCCC1CCN(S(=O)(=O)c2ccc(C(=O)Nc3nc(-c4cc(C)ccc4Br)cs3)cc2)CC1` [Compound 59, N-(4-(2-bromo-5-methylphenyl)thiazol-2-yl)-4-((4-propylpiperidin-1-yl)sulfonyl)benzamide], the activity at 5 µM with NF-κB [1] (setting [3]) amounted to 298%; in the data set with NF-κB [1] (setting [4]) it was 484%. Moreover, the “NF-κB activity” value in the data set with NF-κB [1] is “very potent and showed better potency than compound 1”. Also, the “NF-κB FRET Compound + LPS % Activation” value with NF-κB [2] was 211.88%. Also, in the data set with THP-1 cells, the “MTT Compound alone % Viability” value is on record as 98.59%.
With `CCCC#Cc1sc(NC(=O)c2ccc(S(=O)(=O)N3CCC(CCC)CC3)cc2)nc1-c1cc(C)ccc1C` [Compound 61, N-(4-(2,5-dimethylphenyl)-5-(pent-1-yn-1-yl)thiazol-2-yl)-4-((4-propylpiperidin-1-yl)sulfonyl)benzamide], the figures for the activity at 5 µM with NF-κB [1] (setting [3]) and with NF-κB [1] (setting [4]) were 189% and 119%, respectively. Besides, the “NF-κB activity” value with NF-κB [1] is “very potent and showed better potency than compound 1”. In addition, the “NF-κB FRET Compound + LPS % Activation” value in the data set with NF-κB [2] is 207.19%. Further, the “MTT Compound alone % Viability” value with THP-1 cells was found to be 102.98%.
As for `CCCC#Cc1sc(NC(=O)c2ccc(S(=O)(=O)N3CCCCC3)cc2)nc1-c1cc(C)ccc1Br` [Compound 64, N-(4-(2-bromo-5-methylphenyl)-5-(pent-1-yn-1-yl)thiazol-2-yl)-4-(piperidin-1-ylsulfonyl)benzamide], the values for the activity at 5 µM with NF-κB [1] (setting [3]) and with NF-κB [1] (setting [4]) were 287% and 348%, respectively. Further, the “NF-κB activity” value in the data set on NF-κB [1] was “very potent and showed better potency than compound 1”. Besides, in the data set on NF-κB [2], the “NF-κB FRET Compound + LPS % Activation” value is on record as 196.14%. Moreover, in the data set on THP-1 cells, the “MTT Compound alone % Viability” value was 101.42%.
For `Cc1ccc(N=[N+]=[N-])cc1-c1csc(NC(=O)c2ccc(S(=O)(=O)N3CCCCC3)cc2)n1` [Compound 67, N-(4-(5-azido-2-methylphenyl)thiazol-2-yl)-4-(piperidin-1-ylsulfonyl)benzamide], the activity at 5 µM in the data set with NF-κB [1] (setting [3]) turned out to be 159%; in the data set on NF-κB [1] (setting [4]), 177%. For the same compound, in the data set with NF-κB [1], the “NF-κB activity” value is “retained activity”. Besides, the “NF-κB FRET Compound + LPS % Activation” value in the data set on NF-κB [2] came out at 168.96%. The “MTT Compound alone % Viability” value in the data set with THP-1 cells is recorded as 90.50%.
Turning to `Cc1ccc(N=[N+]=[N-])c(-c2csc(NC(=O)c3ccc(S(=O)(=O)N4CCCCC4)cc3)n2)c1` [Compound 70, N-(4-(2-azido-5-methylphenyl)thiazol-2-yl)-4-(piperidin-1-ylsulfonyl)benzamide], the activity at 5 µM in the data set on NF-κB [1] (setting [3]) was 97.3%; in the data set with NF-κB [1] (setting [4]), 101%. The “NF-κB activity” value in the data set on NF-κB [1] was “inactive”. The “NF-κB FRET Compound + LPS % Activation” value in the data set with NF-κB [2] is 70.93%. The “MTT Compound alone % Viability” value in the data set on THP-1 cells is listed as 77.84%.
In the case of `C#CCNS(=O)(=O)c1ccc(C(=O)Nc2nc(-c3cc(C)ccc3C)cs2)cc1` [Compound 72a, N-(4-(2,5-dimethylphenyl)thiazol-2-yl)-4-(N-(prop-2-yn-1-yl)sulfamoyl)benzamide], the activity at 5 µM came out at 102% with NF-κB [1] (setting [3]) and 99.2% in the data set with NF-κB [1] (setting [4]). The “NF-κB activity” value in the data set on NF-κB [1] is on record as “lost their activity”. For the same compound, in the data set on NF-κB [2], the “NF-κB FRET Compound + LPS % Activation” value is 121.36%. For the same compound, in the data set with THP-1 cells, the “MTT Compound alone % Viability” value amounted to 87.46%.
With `C#CCN(CC)S(=O)(=O)c1ccc(C(=O)Nc2nc(-c3cc(C)ccc3C)cs2)cc1` [Compound 72b, N-(4-(2,5-dimethylphenyl)thiazol-2-yl)-4-(N-ethyl-N-(prop-2-yn-1-yl)sulfamoyl)benzamide], the activity at 5 µM was found to be 109% in the data set on NF-κB [1] (setting [3]) and 105% in the data set with NF-κB [1] (setting [4]). In addition, the “NF-κB activity” value in the data set on NF-κB [1] was “lost their activity”. The “NF-κB FRET Compound + LPS % Activation” value in the data set on NF-κB [2] is recorded as 129.85%. In the data set with THP-1 cells, the “MTT Compound alone % Viability” value was found to be 81.42%.
On the same counts, the results for `C#CCN(CCC)S(=O)(=O)c1ccc(C(=O)Nc2nc(-c3cc(C)ccc3C)cs2)cc1` [Compound 72c, N-(4-(2,5-dimethylphenyl)thiazol-2-yl)-4-(N-(prop-2-yn-1-yl)-N-propylsulfamoyl)benzamide] are 122%, 103%, “lost their activity”, 133.88% and 84.00%.
Take `C#CC1CCN(S(=O)(=O)c2ccc(C(=O)Nc3nc(-c4cc(C)ccc4C)cs3)cc2)CC1` [Compound 72d, N-(4-(2,5-dimethylphenyl)thiazol-2-yl)-4-((4-ethynylpiperidin-1-yl)sulfonyl)benzamide]: the activity at 5 µM is 152% with NF-κB [1] (setting [3]) and 112% with NF-κB [1] (setting [4]). For the same compound, in the data set on NF-κB [1], the “NF-κB activity” value is “active”. Further, the “NF-κB FRET Compound + LPS % Activation” value in the data set on NF-κB [2] came out at 123.22%. Further, the “MTT Compound alone % Viability” value with THP-1 cells was found to be 83.27%.
On the same counts, the results for `Cc1ccc(C)c(-c2csc(NC(=O)c3ccc(S(=O)(=O)N4CCC5(CC4)N=N5)cc3)n2)c1` [Compound 72e, 4-((1,2,6-triazaspiro[2.5]oct-1-en-6-yl)sulfonyl)-N-(4-(2,5-dimethylphenyl)thiazol-2-yl)benzamide] are 168%, 144%, “active”, 168.82% and 84.40%.
Consider `C#CC1CCN(S(=O)(=O)c2ccc(C(=O)Nc3nc(-c4cc(N=[N+]=[N-])ccc4C)cs3)cc2)CC1` [Compound 73, N-(4-(5-azido-2-methylphenyl)thiazol-2-yl)-4-((4-ethynylpiperidin-1-yl)sulfonyl)benzamide], for which the activity at 5 µM was determined as 398% in the data set on NF-κB [1] (setting [3]) and 363% in the data set on NF-κB [1] (setting [4]). Further, the “NF-κB FRET Compound + LPS % Activation” value in the data set on NF-κB [2] was 197.10%. In the data set with THP-1 cells, the “MTT Compound alone % Viability” value turned out to be 84.53%.
